According to ChEMBL document CHEMBL4402557, “Nidufexor (LMB763), a Novel FXR Modulator for the Treatment of Nonalcoholic Steatohepatitis” (J Med Chem, 2020):
Calls of active or inactive are those of the source. No cut-off for these calls is given here.

What was measured:
[1] = AUC in Wistar rat at 30 mg/kg, po; format: ADME, organism-based; details: in vivo
[2] = Volume of distribution at steady state in Wistar rat at 3 mg/kg, iv; format: ADME, organism-based; details: in vivo, read-out: Vdss
[3] = Half life in Wistar rat at 10 mg/kg, po; format: ADME, organism-based; details: in vivo
Mus musculus [4] = experiment: Anti Steato-hepatitic activity in STZ/HFD induced oral dosed C57BL/6J mouse STAM model assessed as reduction in microvesicular fat deposition administered via oral gavage once daily for 3 weeks and measured on 9 week by H and E staining based assay; format: functional, organism-based
[5] = Half life in Wistar rat at 3 mg/kg, iv; format: ADME, organism-based; details: in vivo
[6] = Clearance in dog at 0.5 mg/kg, iv; format: ADME, organism-based, Canis lupus familiaris; details: in vivo
Rattus norvegicus [7] = experiment: In-vivo agonist activity at FXR in orally dosed Han Wistar rat assessed as upregulation of BSEP mRNA level in liver administered via oral gavage once daily for 14 days measured post last dose by qRT-PCR analysis; format: functional, organism-based
[8] = target: T1, G-protein coupled bile acid receptor 1 (Homo sapiens, UniProt Q8TDU6); experiment: Agonist activity at human GPBAR1 expressed in Jurkat cells assessed as increase in intracellular cAMP level incubated for 1 hr by fluorescence based assay; format: functional, cell-based
T1 sequence (Q8TDU6 whole entry): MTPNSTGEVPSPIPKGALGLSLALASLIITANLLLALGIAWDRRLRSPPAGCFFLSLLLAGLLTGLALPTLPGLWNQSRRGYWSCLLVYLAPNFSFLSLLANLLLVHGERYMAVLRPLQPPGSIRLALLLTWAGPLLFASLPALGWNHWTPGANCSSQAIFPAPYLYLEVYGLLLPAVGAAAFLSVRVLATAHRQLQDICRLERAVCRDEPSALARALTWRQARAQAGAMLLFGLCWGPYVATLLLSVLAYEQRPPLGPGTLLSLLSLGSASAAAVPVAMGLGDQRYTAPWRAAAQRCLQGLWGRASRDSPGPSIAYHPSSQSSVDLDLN

[9] = Metabolic stability in rat liver microsomes assessed as hepatic extraction ratio; format: ADME, Microsome; details: read-out: ERH
[10] = Half life in Wistar rat at 100 mg/kg, po; format: ADME, organism-based; details: in vivo
Mus musculus [11] = organism: Mus musculus; experiment: Anti Steato-hepatitic activity in C57BL/6J mouse STAM model assessed as change in Map3k13 gene level in liver; format: functional, organism-based
Glucocorticoid receptor = target: T2, Glucocorticoid receptor (Homo sapiens, UniProt P04150); experiment: Agonist activity at GAL4-fused Glucocorticoid receptor (unknown origin) expressed in HEK293T cells incubated for 24 by BrightGlo reagent based assay; format: cell-based
T2 sequence (P04150 whole entry): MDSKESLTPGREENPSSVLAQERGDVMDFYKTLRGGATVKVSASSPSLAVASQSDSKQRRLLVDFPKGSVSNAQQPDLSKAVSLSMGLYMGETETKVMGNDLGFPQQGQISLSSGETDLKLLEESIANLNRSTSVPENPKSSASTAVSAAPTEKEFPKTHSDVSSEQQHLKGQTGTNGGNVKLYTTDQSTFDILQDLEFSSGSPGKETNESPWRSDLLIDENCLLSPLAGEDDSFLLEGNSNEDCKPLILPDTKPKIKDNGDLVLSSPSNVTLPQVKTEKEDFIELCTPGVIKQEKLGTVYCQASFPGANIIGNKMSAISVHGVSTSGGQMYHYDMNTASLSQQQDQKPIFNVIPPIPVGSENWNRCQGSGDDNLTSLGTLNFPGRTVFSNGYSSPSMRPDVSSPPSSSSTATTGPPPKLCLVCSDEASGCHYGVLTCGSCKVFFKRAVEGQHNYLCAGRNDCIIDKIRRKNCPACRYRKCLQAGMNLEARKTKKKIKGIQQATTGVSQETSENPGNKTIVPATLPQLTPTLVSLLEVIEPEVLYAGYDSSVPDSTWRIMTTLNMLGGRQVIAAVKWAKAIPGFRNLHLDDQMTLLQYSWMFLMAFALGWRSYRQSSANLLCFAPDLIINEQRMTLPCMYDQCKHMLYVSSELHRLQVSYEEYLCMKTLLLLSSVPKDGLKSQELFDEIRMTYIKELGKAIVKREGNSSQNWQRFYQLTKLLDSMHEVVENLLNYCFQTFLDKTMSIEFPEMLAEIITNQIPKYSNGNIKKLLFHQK

[12] = Half life in mouse at 3 mg/kg, iv; format: ADME, organism-based; details: in vivo
Rattus norvegicus [13] = experiment: In-vivo agonist activity at FXR in Han Wistar rat assessed as upregulation of FGF15 mRNA level in ileum at 1.5 mg/kg administered via oral gavage once daily for 14 days measured 10 hrs post last dose by qRT-PCR analysis relative to control; format: functional
[14] = target: T3, Peroxisome proliferator-activated receptor gamma (Homo sapiens, UniProt P37231); experiment: Agonist activity at PPARgamma (unknown origin) incubated for 2 hrs by TR-FRET assay
T3 sequence (P37231 whole entry): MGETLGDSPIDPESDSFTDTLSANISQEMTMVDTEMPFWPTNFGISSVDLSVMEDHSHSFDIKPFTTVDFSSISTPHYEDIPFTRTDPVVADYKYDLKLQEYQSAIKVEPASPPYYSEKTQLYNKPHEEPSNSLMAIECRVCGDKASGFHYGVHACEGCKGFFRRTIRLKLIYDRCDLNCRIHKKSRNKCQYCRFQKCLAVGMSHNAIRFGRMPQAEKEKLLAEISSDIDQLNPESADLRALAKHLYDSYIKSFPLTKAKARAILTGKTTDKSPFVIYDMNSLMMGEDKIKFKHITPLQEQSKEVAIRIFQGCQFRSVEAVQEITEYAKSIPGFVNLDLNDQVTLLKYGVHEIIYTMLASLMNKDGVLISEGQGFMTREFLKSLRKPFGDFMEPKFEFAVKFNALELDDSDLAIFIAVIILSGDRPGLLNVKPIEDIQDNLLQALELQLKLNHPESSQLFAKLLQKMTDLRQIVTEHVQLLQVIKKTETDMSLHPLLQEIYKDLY

[15] = AUC in Wistar rat plasma at 10 mg/kg, po; format: ADME, organism-based
[16] = Cmax in Wistar rat at 3 mg/kg, po; format: ADME, organism-based; set-up: dose 3 mg/kg, route oral; details: in vivo
[17] = Clearance in Wistar rat at 3 mg/kg, iv; format: ADME, organism-based; details: in vivo
[18] = Half life in rabbit at 5 mg/kg, iv; format: ADME, organism-based, Oryctolagus cuniculus; details: in vivo
[19] = Cmax in Wistar rat at 10 mg/kg, po; format: ADME, organism-based; set-up: dose 10 mg/kg, route oral; details: in vivo

## Cn1nc(C(=O)N(Cc2ccccc2)Cc2ccc(C(=O)O)cc2)c2c1-c1cc(Cl)ccc1OC2 [NIDUFEXOR]
[1]
  AUC: 76.5 µM·h
[2]
  Vd: 0.8 L/kg
[3]
  half-life: 5.7 h
Mus musculus [4]
  Activity: Dose-dependent effect
[5]
  half-life: 3 h
[6]
  clearance: 3.6 mL/min/kg
Rattus norvegicus [7]
  Activity: Dose-dependent effect
[8]
  EC50: > 80 µM
[9]
  hepatic extraction ratio: < 0.18
[10]
  half-life: 5.6 h
Mus musculus [11]
  Activity: Active
Glucocorticoid receptor
  EC50: > 10 µM
[12]
  half-life: 4.5 h
Rattus norvegicus [13]
  fold change (FC): 30
[14]
  EC50: > 30 µM
[15]
  AUC: 24.5 µM·h
[16]
  Cmax: 4.5 µM
[17]
  clearance: 7 mL/min/kg
[18]
  half-life: 4.4 h
[19]
  Cmax: 12.4 µM
